Source: the supplement of paper PMC10627819

What was measured:
S. pneumoniae D39V [1] = test: fitness (endpoint OD595 vs no drug) (fraction); higher = more growth
In short: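 Fitness expresses the optical density reached at the stationary-phase transition as a fraction of the robust mean of no-drug control wells. It is capped at 1. Measurements were OD595 every 30 min for 14 h at 37 °C after inoculation of 384-well plates at OD595 0.01 (30 µl, or 55 µl for S. pneumoniae), minus the first reading.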

B. subtilis 168 = test: Bliss interaction score (quartile over a dose matrix) (fitness difference); higher = more antagonism (negative = synergy)
In short: (§1)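 Fitness is OD595 at stationary-phase entry relative to the plate's robust no-drug mean, capped at 1. Single-drug fitness was inferred from combinations. The Bliss score is observed minus product-expected fitness, summarised by quartiles over technical, biological and donor/recipient replicates.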

S. aureus DSM 20231 = test: as above
In short: as §1

S. aureus Newman = test: as above
In short: as §1

S. pneumoniae D39V [2] = test: as above
In short: as §1
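For Bliss interaction score (quartile over a dose matrix) in this document: first quartile when negative (synergy) and third quartile when positive (antagonism).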

O=C(O)c1cn(C2CC2)c2cc(N3CCNCC3)c(F)cc2c1=O [Ciprofloxacin] + C[C@@H](O)[C@H]1C(=O)N2C(C(=O)O)=C(SCCNC=N)C[C@H]12 [Imipenem]
fitness, S. pneumoniae D39V [1]
Details	partner 0.005 µg/mL	partner 0.0065 µg/mL	partner 0.01 µg/mL	partner 0.013 µg/mL	partner 0.02 µg/mL	partner 0.026 µg/mL
first compound 0.125 µg/mL	0.956	0.96	0.959	0.893	0.933	0.837
first compound 0.25 µg/mL	–	0.878	–	0.847	–	0.774
first compound 0.5 µg/mL	–	0.531	–	0.583	–	0.529

S. pneumoniae D39V [1], first compound 0.25 µg/mL, one replicate
Details	fitness
partner 0.005 µg/mL	0.835
partner 0.01 µg/mL	0.824
partner 0.02 µg/mL	0.881

Details	Bliss interaction score
B. subtilis 168	-0.149
S. aureus DSM 20231	0.0301
S. aureus Newman	0.016
S. pneumoniae D39V [2]	0.0446

O=C(O)c1cn(C2CC2)c2cc(N3CCNCC3)c(F)cc2c1=O [Ciprofloxacin] + Clc1ccc(COC(Cn2ccnc2)c2ccc(Cl)cc2Cl)c(Cl)c1 [Miconazole]
fitness, S. pneumoniae D39V [1]
Details	partner 1.073 µg/mL	partner 1.25 µg/mL	partner 2.145 µg/mL	partner 2.5 µg/mL	partner 4.29 µg/mL	partner 5 µg/mL
first compound 0.125 µg/mL	0.987	0.939	0.966	0.925	0.926	0.908
first compound 0.25 µg/mL	0.964	–	0.965	–	0.864	–
first compound 0.5 µg/mL	0.761	0.679	0.76	–	0.821	0.646

S. pneumoniae D39V [1], first compound 0.25 µg/mL, one replicate
Details	fitness
partner 1.25 µg/mL	0.821
partner 2.5 µg/mL	0.697
partner 5 µg/mL	0.721

Details	Bliss interaction score
B. subtilis 168	-0.0762
S. aureus DSM 20231	0.0295
S. aureus Newman	0.0815
S. pneumoniae D39V [2]	0.0741

O=C(O)c1cn(C2CC2)c2cc(N3CCNCC3)c(F)cc2c1=O [Ciprofloxacin] + O=C1CN(/N=C/c2ccc([N+](=O)[O-])o2)C(=O)N1 [Nitrofurantoin]
fitness, S. pneumoniae D39V [1]
Details	partner 1.285 µg/mL	partner 2 µg/mL	partner 2.57 µg/mL	partner 4 µg/mL	partner 8 µg/mL
first compound 0.125 µg/mL	0.921	0.914	0.932	0.906	0.692
first compound 0.25 µg/mL	0.895	–	0.903	–	–
first compound 0.5 µg/mL	0.704	–	0.72	–	0.437

fitness, S. pneumoniae D39V [1], one replicate
Details	partner 2 µg/mL	partner 4 µg/mL	partner 5.14 µg/mL	partner 8 µg/mL
first compound 0.125 µg/mL	–	–	0.877	–
first compound 0.25 µg/mL	0.731	0.679	0.879	0.56
first compound 0.5 µg/mL	–	–	0.627	–

Details	Bliss interaction score
B. subtilis 168	0.129
S. aureus DSM 20231	0.0292
S. aureus Newman	-0.0569
S. pneumoniae D39V [2]	0.106
